smiles,measurement,setting,value
O=C(O)c1ccc(C(=O)O)cc1,solubility (mole fraction),"in DMAc, 303.2 K",0.016
same,solubility (mole fraction),"in DMAc, 313.2 K",0.0211
same,solubility (mole fraction),"in DMAc, 323.2 K",0.0269
same,solubility (mole fraction),"in DMAc, 333.2 K",0.0331
same,solubility (mole fraction),"in DMAc, 343.2 K",0.0385
same,solubility (mole fraction),"in DMAc, 353.2 K",0.0452
same,solubility (mole fraction),"in DMAc, 363.2 K",0.0524
same,solubility (mole fraction),"in NMP, 303.2 K",0.0133
same,solubility (mole fraction),"in NMP, 313.2 K",0.0155
same,solubility (mole fraction),"in NMP, 323.2 K",0.0188
same,solubility (mole fraction),"in NMP, 333.2 K",0.0216
same,solubility (mole fraction),"in NMP, 343.2 K",0.0256
same,solubility (mole fraction),"in NMP, 353.2 K",0.0287
same,solubility (mole fraction),"in NMP, 363.2 K",0.0328

# Source: BigSolDB 2.1
